Experimental data taken from ChEMBL document CHEMBL5308504, “Tm Shift (DSF) assay results for EUbOPEN Chemogenomics Library” (2023).

Legend:
Peregrin (Homo sapiens) = molecular target: T1, Peregrin (Homo sapiens) (UniProt P55201); conditions: Compound concentration 20.0 uM, Protein concentration 2.0 uM, Result type QC Liability
T1 sequence (whole entry): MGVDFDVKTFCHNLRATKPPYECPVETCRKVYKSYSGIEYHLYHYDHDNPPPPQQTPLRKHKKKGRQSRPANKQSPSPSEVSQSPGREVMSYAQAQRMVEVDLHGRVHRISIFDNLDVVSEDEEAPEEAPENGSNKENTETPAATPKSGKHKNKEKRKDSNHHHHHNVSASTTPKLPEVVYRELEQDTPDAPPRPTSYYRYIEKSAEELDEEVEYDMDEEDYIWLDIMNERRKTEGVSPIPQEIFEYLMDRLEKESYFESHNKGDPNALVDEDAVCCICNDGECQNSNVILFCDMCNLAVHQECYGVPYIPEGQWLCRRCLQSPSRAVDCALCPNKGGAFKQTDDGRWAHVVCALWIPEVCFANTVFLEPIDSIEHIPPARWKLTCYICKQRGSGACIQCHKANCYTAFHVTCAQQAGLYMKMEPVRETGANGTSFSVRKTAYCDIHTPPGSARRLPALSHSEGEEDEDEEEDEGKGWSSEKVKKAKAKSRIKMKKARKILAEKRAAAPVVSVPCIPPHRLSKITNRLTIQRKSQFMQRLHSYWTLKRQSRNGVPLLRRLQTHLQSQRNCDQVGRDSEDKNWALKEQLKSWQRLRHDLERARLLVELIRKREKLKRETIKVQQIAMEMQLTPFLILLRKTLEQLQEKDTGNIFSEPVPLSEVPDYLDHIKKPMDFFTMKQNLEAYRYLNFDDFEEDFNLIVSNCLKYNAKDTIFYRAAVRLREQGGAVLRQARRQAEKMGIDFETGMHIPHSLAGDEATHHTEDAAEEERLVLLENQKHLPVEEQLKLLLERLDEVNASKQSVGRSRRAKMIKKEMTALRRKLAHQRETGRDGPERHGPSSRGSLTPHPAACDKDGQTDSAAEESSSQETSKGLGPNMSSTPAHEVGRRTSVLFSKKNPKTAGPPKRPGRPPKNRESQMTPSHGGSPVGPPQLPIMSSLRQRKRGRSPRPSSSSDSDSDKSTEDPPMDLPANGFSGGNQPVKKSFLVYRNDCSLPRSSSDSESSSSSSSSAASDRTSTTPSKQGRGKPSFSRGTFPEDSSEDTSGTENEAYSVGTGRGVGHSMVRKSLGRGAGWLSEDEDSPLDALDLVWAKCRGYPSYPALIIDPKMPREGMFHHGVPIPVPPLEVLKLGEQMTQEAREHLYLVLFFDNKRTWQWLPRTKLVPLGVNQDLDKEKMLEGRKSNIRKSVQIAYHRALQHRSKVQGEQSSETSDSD

[1] = molecular target: Fibroblast growth factor receptor 3 (Homo sapiens) (UniProt P22607); conditions: Compound concentration 20.0 uM, Protein concentration 2.0 uM, Result type QC Liability
Sequence of Fibroblast growth factor receptor 3 (Homo sapiens) (P22607 23-806 limits assumed): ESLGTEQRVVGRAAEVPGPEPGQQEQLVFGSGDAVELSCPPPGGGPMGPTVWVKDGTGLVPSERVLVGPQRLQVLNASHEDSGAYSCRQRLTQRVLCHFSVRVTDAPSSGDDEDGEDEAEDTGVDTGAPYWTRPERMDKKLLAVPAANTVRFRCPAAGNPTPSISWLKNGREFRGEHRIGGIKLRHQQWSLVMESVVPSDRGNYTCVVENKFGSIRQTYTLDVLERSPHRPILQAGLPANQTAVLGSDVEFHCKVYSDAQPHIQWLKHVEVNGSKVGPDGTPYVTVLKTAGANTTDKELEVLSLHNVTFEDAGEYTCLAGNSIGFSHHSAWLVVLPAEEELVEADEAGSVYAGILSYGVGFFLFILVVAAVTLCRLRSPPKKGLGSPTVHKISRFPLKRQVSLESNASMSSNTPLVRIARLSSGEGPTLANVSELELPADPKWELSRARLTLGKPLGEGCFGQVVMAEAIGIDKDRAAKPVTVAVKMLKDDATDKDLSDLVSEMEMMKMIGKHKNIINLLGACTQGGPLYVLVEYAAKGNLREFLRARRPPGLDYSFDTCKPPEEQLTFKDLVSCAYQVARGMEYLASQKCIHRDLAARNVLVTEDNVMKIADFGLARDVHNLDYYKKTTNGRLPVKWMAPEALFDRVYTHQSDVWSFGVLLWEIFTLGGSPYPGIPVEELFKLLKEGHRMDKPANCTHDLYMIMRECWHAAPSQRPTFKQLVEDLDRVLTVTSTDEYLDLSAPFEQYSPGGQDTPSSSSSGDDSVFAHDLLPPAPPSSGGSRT
Description: Thermal Shift Assay. Domain: start/stop: P449-E759

For `CNC(=O)c1cc(C(=O)N[C@H]2[C@@H]3COC[C@@H]32)cc2c1O[C@@H](CF)[C@@H]2c1ccccc1`, the ΔTm (Peregrin (Homo sapiens)) was -1.16 °C and the ΔTm [1] was 0.48 °C.
Compound `Cc1cc2c(-c3ccco3)cnc(N[C@H]3CCN(C)C[C@@H]3C(=O)NC3CCCCC3)c2[nH]c1=O` has a ΔTm (Peregrin (Homo sapiens)) of -1.73 °C and a ΔTm [1] of 1 °C.
`CNc1ncc2cc(-c3ccc(-c4ncccc4F)cc3Cl)c(=O)n(C[C@H]3OC[C@H](N)CO3)c2n1` gave a ΔTm (Peregrin (Homo sapiens)) of -1.11 °C and a ΔTm [1] of 2.03 °C.
`Cc1cccc(-c2[nH]c(CNc3ccccc3F)nc2-c2ccc3ncnn3c2)n1` was tested, and the ΔTm (Peregrin (Homo sapiens)) was 0.68 °C and the ΔTm [1] was 4.08 °C.
For `C=C(F)C(=O)N1CCN(c2nc(OC[C@@H]3CCCN3C)nc3c2CCN(c2cccc4cccc(Cl)c24)C3)C[C@@H]1CC#N`, the ΔTm (Peregrin (Homo sapiens)) was -3.96 °C and the ΔTm [1] was 0.12 °C.
Work on `CCNc1ccc(-c2nn(-c3ccccc3C)c3c2C(C)Cc2nc(NC(=O)OC)sc2-3)cn1` (configuration not stated) yielded a ΔTm (Peregrin (Homo sapiens)) of -1.43 °C and a ΔTm [1] of 0.96 °C.
For `CNC(=O)c1ccc(C)c(-n2c(C)cc(OCc3ccc(F)cc3F)c(Br)c2=O)c1`, the ΔTm (Peregrin (Homo sapiens)) was -1.84 °C and the ΔTm [1] was -1.16 °C.
In the case of `COCCOCn1c(S(C)(=O)=O)nc2c1c(=O)n(C)c(=O)n2C`, the ΔTm (Peregrin (Homo sapiens)) is reported as -2.72 °C and the ΔTm [1] is reported as 0.45 °C.
In the case of `Cc1cc2c(cc(C(=O)N[C@H](CO)c3ccc(S(=O)(=O)CC(=O)O)cc3)n2C)c(Cl)c1Cl`, the ΔTm (Peregrin (Homo sapiens)) is reported as -3.03 °C and the ΔTm [1] is reported as 0.16 °C.
Compound `CC(C(=O)Nc1cc(C#N)ccc1CCCC(=O)O)c1ccc(F)c2ccccc12` (configuration not stated) has a ΔTm (Peregrin (Homo sapiens)) of -2.92 °C and a ΔTm [1] of 0.51 °C.
For `O=C1COc2cc(C(=O)N(Cc3ccc(C(=O)Nc4ccncn4)cc3)C3CC3)ccc2N1`, the ΔTm (Peregrin (Homo sapiens)) was -0.77 °C and the ΔTm [1] was 0.74 °C.
`Nc1ncnc2c1c(COc1cccc(Cl)c1)nn2C1CCOCC1` gave a ΔTm (Peregrin (Homo sapiens)) of -1.86 °C and a ΔTm [1] of 1.63 °C.
`c1ccc(C2CCN(c3cnc4c(N5CCOCC5)nccn34)CC2)cc1` showed a ΔTm (Peregrin (Homo sapiens)) of -0.86 °C and a ΔTm [1] of 0.73 °C.
In the case of `COc1cc(C(=O)NCCOCCOCCOCC(=O)N[C@H](C(=O)N2C[C@@H](O)C[C@H]2C(=O)NCc2ccc(-c3scnc3C)cc2)C(C)(C)C)ccc1Nc1ncc(C(F)(F)F)c(Oc2cccc3c2C(=O)CC3)n1`, the ΔTm (Peregrin (Homo sapiens)) is reported as 1.72 °C and the ΔTm [1] is reported as 1.69 °C.
Work on `COc1cc(-c2cncc(-c3ccc(N4CCN(C(C)C)CC4)cc3)c2C)cc(F)c1C(=O)N1CCCC1` yielded a ΔTm (Peregrin (Homo sapiens)) of -1.67 °C and a ΔTm [1] of 0.64 °C.
Work on `CCO[C@H](COc1ccc(C(F)(F)F)cc1)CSc1ccc(OCC(=O)O)c(C)c1` yielded a ΔTm (Peregrin (Homo sapiens)) of -0.87 °C and a ΔTm [1] of 0.48 °C.
Compound `Cc1csc(S(=O)(=O)N(CC(C)C)c2cc3c(cc2OCc2ccc(C(=O)O)cc2)CCC3)n1` has a ΔTm (Peregrin (Homo sapiens)) of -3.17 °C and a ΔTm [1] of 0.12 °C.
In the case of `COc1cc(Oc2nc(-c3ccc(NC(=O)C4CCOC4)cc3)nn3c(C)nc(C)c23)cc(OC)c1OC` (configuration not stated), the ΔTm (Peregrin (Homo sapiens)) is reported as -1.59 °C and the ΔTm [1] is reported as 1.34 °C.
For `CN(C)CCCNc1ccnc(Nc2cccc(Cl)c2)n1`, the ΔTm (Peregrin (Homo sapiens)) was -1.77 °C and the ΔTm [1] was 1.43 °C.
For `O=C1NC(=NCc2cccs2)SC1=Cc1ccc2ncccc2c1`, the ΔTm (Peregrin (Homo sapiens)) was -1.16 °C and the ΔTm [1] was 0.61 °C.
For `Cc1cc2ncnn2cc1Nc1ncc2c(n1)n(C1CCOCC1)c(=O)n2C`, the ΔTm (Peregrin (Homo sapiens)) was -4.35 °C and the ΔTm [1] was 0.53 °C.
`Cc1cc(CN)cc(C)c1-c1ncn(C)c1-c1ccnc2cc(F)ccc12` showed a ΔTm (Peregrin (Homo sapiens)) of -2.14 °C and a ΔTm [1] of 0.85 °C.
`CN1C(=O)c2c(nn(Cc3ccc(-c4cccc(F)n4)cc3)c2Nc2ccccc2)N2C1=N[C@@H]1CCC[C@@H]12` was tested, and the ΔTm (Peregrin (Homo sapiens)) was -3.07 °C and the ΔTm [1] was -0.44 °C.
Compound `CNC(=O)c1cc(C(=O)NC2CC2)cn(Cc2ccccc2)c1=O` has a ΔTm (Peregrin (Homo sapiens)) of -0.87 °C and a ΔTm [1] of 0.5 °C.
In the case of `N#Cc1c(SCc2csc(-c3ccc(Cl)cc3)n2)nc(N2CCCC2)c(C#N)c1-c1ccc(OCCO)cc1`, the ΔTm (Peregrin (Homo sapiens)) is reported as -3.79 °C and the ΔTm [1] is reported as 1.06 °C.
Compound `O=C(Nc1cc2cc[nH]c(=O)c2cc1Cl)[C@H]1CNC[C@@H]1c1cccnc1` has a ΔTm (Peregrin (Homo sapiens)) of -0.61 °C and a ΔTm [1] of 0.4 °C.
